According to EP0434057B1, “Indolocarbazole derivatives, processes for their preparation and their use” (GÖDECKE AKTIENGESELLSCHAFT, priority 1989, dated 1991):
Read-outs that look alike come from different tables or passages of the source.

Key:
[1] = molecular target: tyrosinspezifischen Kinase (T-Kinase); details: read-out: Inhibierung von Proteinkinasen (IC50, µM) T-Kinase; value marked *: J. Antibiot. 1987, 40, 1782; cited from earlier work
[2] = molecular target: Myosin Light Chain Kinase (MLC-Kinase) (Gallus gallus, UniProt P11799); test: Inhibition of myosin light chain kinase (literature method); type: biochemical; details: read-out: Inhibierung von Proteinkinasen (IC50, µM) MLC-Kinase
Description: (§1) Die Bestimmung der Inhibierung von A-, G-, MLC- oder T-Kinase erfolgte nach den in der Literatur beschriebenen Verfahren (Gill, G.N., Walton M., Advances in cyclic nucleotide research, Vol. 10, herausgegeben von G. Brooker und G.A. Robinson, Raven Press, New York, 1979; Eur. J. Biochem. 1986, 158, 203; Biochem. J. 1984, 218, 863; Analyt. Biochem. 1983, 135, 37; Mol. Immunol. 1989, 26, 897).

[3] = molecular target: tyrosinspezifischen Kinase (T-Kinase); test: Inhibition of tyrosine-specific kinase (literature method); type: biochemical; details: read-out: Inhibierung von Proteinkinasen (IC50, µM) T-Kinase
Description: as §1

[4] = molecular target: T1, cGMP-abhängigen Proteinkinase (G-Kinase) (Bos taurus, UniProt P00516); test: Inhibition of cGMP-dependent protein kinase (literature method); type: biochemical; details: read-out: Inhibierung von Proteinkinasen (IC50, µM) G-Kinase
T1 sequence (P00516 2-671): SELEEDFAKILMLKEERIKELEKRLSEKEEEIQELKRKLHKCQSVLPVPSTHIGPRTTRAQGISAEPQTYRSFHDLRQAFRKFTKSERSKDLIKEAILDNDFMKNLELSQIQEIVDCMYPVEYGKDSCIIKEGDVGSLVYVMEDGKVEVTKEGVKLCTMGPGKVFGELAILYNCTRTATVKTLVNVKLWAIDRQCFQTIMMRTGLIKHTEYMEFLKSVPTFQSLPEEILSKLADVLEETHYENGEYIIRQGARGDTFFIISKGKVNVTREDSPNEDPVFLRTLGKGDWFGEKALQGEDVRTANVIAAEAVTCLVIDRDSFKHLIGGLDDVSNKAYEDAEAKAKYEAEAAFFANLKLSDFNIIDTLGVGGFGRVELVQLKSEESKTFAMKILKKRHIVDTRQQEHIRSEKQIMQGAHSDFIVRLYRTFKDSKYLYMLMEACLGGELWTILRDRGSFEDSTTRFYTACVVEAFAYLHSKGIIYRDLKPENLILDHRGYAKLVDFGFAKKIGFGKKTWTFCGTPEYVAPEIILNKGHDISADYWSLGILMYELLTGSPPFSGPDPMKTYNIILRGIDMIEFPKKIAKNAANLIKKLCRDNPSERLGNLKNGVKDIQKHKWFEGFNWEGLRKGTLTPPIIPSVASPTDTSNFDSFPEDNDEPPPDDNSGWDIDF
Description: as §1

[5] = molecular target: Proteinkinase C (PKC); test: Enzyme assay: inhibition of protein kinase C activated with phosphatidylserine and diacylglycerol (according to EP-A-0 255 126); type: biochemical

Sequence of Myosin Light Chain Kinase (MLC-Kinase) (P11799 935-1906): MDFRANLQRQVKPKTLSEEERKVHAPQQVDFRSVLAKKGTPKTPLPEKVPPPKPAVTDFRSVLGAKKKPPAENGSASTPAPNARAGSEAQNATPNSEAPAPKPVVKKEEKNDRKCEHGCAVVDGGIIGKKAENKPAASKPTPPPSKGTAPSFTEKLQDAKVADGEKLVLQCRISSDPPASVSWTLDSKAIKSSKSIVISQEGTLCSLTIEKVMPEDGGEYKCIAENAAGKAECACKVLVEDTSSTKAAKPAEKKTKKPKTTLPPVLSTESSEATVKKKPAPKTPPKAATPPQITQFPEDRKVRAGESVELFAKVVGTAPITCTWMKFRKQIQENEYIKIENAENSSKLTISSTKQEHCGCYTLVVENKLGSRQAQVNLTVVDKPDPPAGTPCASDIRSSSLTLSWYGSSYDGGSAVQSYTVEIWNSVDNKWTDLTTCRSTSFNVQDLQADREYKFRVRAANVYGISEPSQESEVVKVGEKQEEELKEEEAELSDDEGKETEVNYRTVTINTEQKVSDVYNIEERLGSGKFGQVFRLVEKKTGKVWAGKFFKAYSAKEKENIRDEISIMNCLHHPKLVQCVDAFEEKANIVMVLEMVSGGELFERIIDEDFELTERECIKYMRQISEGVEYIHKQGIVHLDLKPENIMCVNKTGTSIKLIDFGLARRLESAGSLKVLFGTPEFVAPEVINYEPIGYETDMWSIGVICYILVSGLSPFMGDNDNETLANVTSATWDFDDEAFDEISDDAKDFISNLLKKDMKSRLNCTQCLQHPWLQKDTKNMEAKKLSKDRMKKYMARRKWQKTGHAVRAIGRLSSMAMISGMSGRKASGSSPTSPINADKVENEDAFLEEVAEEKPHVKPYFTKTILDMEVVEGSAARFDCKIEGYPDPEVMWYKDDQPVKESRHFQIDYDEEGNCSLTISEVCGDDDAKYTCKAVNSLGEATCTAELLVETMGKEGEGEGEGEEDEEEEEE

SMILES | IC50 [1] [µM] | IC50 [2] [µM] | IC50 [3] [µM] | IC50 [4] [µM] | IC50 ([5]; PKC activated with Phosphatidylserin and Diacylglycerol, read-out: 50%ige Inhibierung bei einer Konzentration von) [µM] | IC50 ([5]; read-out: Inhibierung von Proteinkinasen (IC50, µM) PKC) [µM]
CN[C@@H]1C[C@H]2O[C@@](C)([C@@H]1OC)n1c3ccccc3c3c4c(c5c6ccccc6n2c5c31)C(=O)NC4 [Staurosporin] | 0.006 | – | – | – | – | –
Cn1c2ccccc2c2c3c(c4c5ccccc5n(CCC#N)c4c21)CNC3=O [Beispiel 2, 12-(2-Cyanoethyl)-6,7,12,13-tetrahydro-13-methyl-5-oxo-5H-indolo[2,3-a]pyrrolo[3,4-c]carbazol] | – | 5.8 | 25 | 6.2 | 0.02 | 0.02
